Patent US20140004209A1, “AUTOPHAGY INDUCER AND INHIBITOR COMBINATION THERAPY FOR THE TREATMENT OF NEOPLASMS” (GENENTECH, INC., priority 2010, published 2014)
Read-outs that look alike come from different tables or passages of the source.

Legend:
Format in all cases: cell-based, human
PC3 cells [1] = experiment: Mitochondrial membrane potential (MitoPT dye) in PC3 cells; details: for mitochondrial membrane potential, II-4 (Akti-1/2) and CQ: 3 μM Akti-1/2, 10 μM CQ
Experimental: FIG. 21. […] Images at 48 h are shown. […] Merged images between red and green channels are also shown (MitoPT-M). Scale bar: 20 μm. (B) Percentage of cells showing red punctate stains and diffuse green stains from treatments described in (A). >86 cells from two random fields of fluorescent images of each treatment were counted. Error bars represent standard deviations between the two fields. […] Total fluorescence intensity from all cells was collected using the Isocyte (Blueshift Biotechnologies), a laser scanning imager. Green fluorescence intensity is collected with a 488 nm laser and a 510-540 nm band pass filter, and normalized to cell number determined by Hoechst staining using a 405 nm laser and a 430-480 nm band pass filter. Error bars, standard deviation between two independent experiments. (D) Representative images of the green ROS signals and bright field (BF) taken under a Nikon TE300 inverted microscope. […] Scale bar: 20 μm.
Cell Culture and Reagents: The PTEN^−/− and PTEN^+/+ MEFs were maintained as previously described (Sun, H., R. Lesche, D. M. Li, J. Liliental, H. Zhang, J. Gao, N. Gavrilova, B. Mueller, X. Liu, and H. Wu, (1999), PTEN modulates cell cycle progression and cell survival by regulating phosphatidylinositol 3,4,5,-trisphosphate and Akt/protein kinase B signaling pathway. Proc Natl Acad Sci USA. 96:6199-204). The PC3 and U87MG cells were maintained at 37° C. and 5% CO2 in DMEM/Ham's F-12 (1:1) containing 10% tetracycline-free fetal bovine serum. II-4 was from Calbiochem (Akt inhibitor VIII) (Barnett, S. F., D. Defeo-Jones, S. Fu, P. J. Hancock, K. M. Haskell, R. E. Jones, J. A. Kahana, A. M. Kral, K. Leander, L. L. Lee, J. Malinowski, E. M. McAvoy, D. D. Nahas, R. G. Robinson, and H. E. Huber, (2005), Identification and characterization of pleckstrin-homology-domain-dependent and isoenzyme-specific Akt inhibitors. Biochem J. 385:399-408). […] Image-iT LIVE Green Reactive Oxygen Species Detection Kit was purchased from Molecular Probes. MitoPT Mitochondria Permeability Transition Detection Kit was purchased from Immunochemistry Technologies, LLC.

PC3 cells [2] = experiment: Microarray analysis of autophagy gene expression in PC3 cells; details: 1 or 5 μM for 6 or 24 hours, normalized to DMSO
Experimental: PC3 cells were induced to express shRNA to indicated Akt isoforms for 72 hours by Doxycycline, RNA was extracted from both Dox treated (Dox+) or untreated control (Dox−) cells. Microarray analysis was carried out using Affymetrix chips. Ratios of the expression levels of each autophagy gene from Dox+ and Dox− samples are shown. Data are mean values from 3 independent experiments.
RNA was extracted from the cells. Microarray analysis was carried out using Affymetrix chips. Expression levels of each autophagy gene are normalized to the DMSO controls. Data are mean values from 3 independent experiments.

Akt = experiment: Immunoblot of Akt and S6 phosphorylation in PC3 cells; details: II-4 alone
Excerpt: (§1) Western blot analysis, immunofluorescence, 1HC and TUNEL assay: For Western blot analysis, total protein lysates were subjected to SDS-PAGE and transferred to nitrocellulose. Antibodies used were: anti-Akt1, anti-Akt2, anti-Akt3, anti-total-Akt, anti-p-Akt (Ser473), anti-p-Akt (Thr308), anti-p-S6 (Ser235/236), anti-PARP and anti-cleaved caspase-3 (Cell Signaling Technology); anti-p-PRAS40 (Invitrogen); anti-p27^Kip1 (Santa Cruz Biotechnology); anti-LC3 (Novus); anti-LAMP2 and anti-Cathepsin D (BD Biosciences); and anti-GAPDH (Advanced Immunochemical Inc.). Primary antibodies were detected using IR Dye 800-conjugated (Rockland) and Alexa-Fluoro 680-conjugated (Molecular Probes) species-selective secondary antibodies. Detection and quantification were performed using an Odyssey infrared scanner (LICOR) using the manufacturer's software. For immunofluorescence staining, cells were fixed in 3% paraformaldehyde and permeabilized with 0.01% digitonin in PBS, followed by a rabbit polyclonal anti-LC3 (Abgent) primary antibody detected with a cy3-conjugated anti-rabbit secondary antibody (Jackson Immunoresearch). For IHC, formalin-fixed, paraffin-embedded specimens were collected. 5-μm-thick paraffin-embedded sections were stained using an anti-Ki-67 (MIB-1, DakoCytomation) antibody with the Dako ARK kit (Dako Corporation). Tissues were counterstained with haematoxylin, dehydrated, and mounted. In all cases, antigen retrieval was performed with the Dako Target Retrieval Kit as per manufacturer's instructions. For TUNEL assay, formalin-fixed, paraffin-embedded sections were stained using an in situ cell death detection kit (POD; Roche Diagnostic) according to the manufacturer's instructions.

PC3 cells [3] = experiment: Immunoblot of LAMP1, cathepsin D and p62 in PC3 cells
Excerpt: as §1, with “Primary antibodies were detected using IR Dye 800-conjugated (Rockland) and Alexa-Fluoro 680-conjugated (Molecular Probes) species-selective secondary antibodies.” left out
Because autophagy is a key function of the lysosomal compartment (Terman, A., B. Gustafsson, and U. T. Brunk, (2006), The lysosomal-mitochondrial axis theory of postmitotic aging and cell death. Chem Biol Interact. 163:29-37), we examined the lysosomal marker LAMPI and cathepsin D, the predominant lysosomal aspartic protease, by immunoblotting (FIG. 6, B and C). […] Cathepsin D is synthesized as a 43-kD preprocathepsin D that is cleaved cotranslationally and glycosylated to form a 46-kD procathepsin D, which is targeted to lysosomes yielding an intermediate that is further cleaved into a mature enzyme consisting of a 15-kD light chain and a 28-kD heavy chain.

O=c1[nH]c2ccccc2n1C1CCN(Cc2ccc(-c3nc4cc5nc[nH]c5cc4nc3-c3ccccc3)cc2)CC1 [II-4, 1-(1-(4-(7-phenyl-1H-imidazo[4,5-g]quinoxalin-6-yl)benzyl)piperidin-4-yl)-1H-benzo[d]imidazol-2 (3H)-one]
mitochondrial membrane potential, II-4 (Akti-1/2) and CQ (PC3 cells [1]): almost complete loss of mitochondrial potential
mitochondrial membrane potential, II-4 (Akti-1/2) and CQ (PC3 cells [1]; listed as Akti-1/2): CQ enhanced Akti-1/2-induced mitochondria depolarization
mitochondrial membrane potential, agent alone (PC3 cells [1]; 0.5% FBS): caused a decrease in mitochondrial membrane potential
autophagy gene expression (PC3 cells [2]): induce autophagy gene expression
phosphorylation of Akt on Ser473 and Thr308 (Akt): effectively inhibited the phosphorylation of Akt on both Ser473 and Thr308 residues
phosphorylation of downstream target S6 (Akt): significantly reduced the phosphorylation of downstream target S6
cathepsin D forms, II-4 and CQ (PC3 cells [3]): the precursor forms of cathepsin D accumulated to even higher levels than either alone, whereas the mature 28-kD chain decreased gradually
p62 level (PC3 cells [3]): reduced the level of p62
LAMP1 levels (PC3 cells [3]; agent alone): increase in LAMP1 levels
p62 level (PC3 cells [3]; listed as Akti): caused a reduction in p62 levels
